Measurements as given in patent US20070129568A1, “Ionic liquids” (nGimat, Co., priority 2005, published 2007).

Assay: Room temperature evaporation rate: rate of weight loss in a stream of 25° C. nitrogen relative to n-butyl acetate
Assay type: physicochemical
Conditions: not given
Protocol: Most compounds released by manufacturing processes affect the environment in some manner. […] The room temperature evaporation rates of some of the ILs described in the present invention were compared to several well known compounds by measuring the rate of weight loss in a stream of 25° C. nitrogen relative to the rate of weight loss of n-butyl acetate under the same conditions.

Row | Compound | Evaporation Rate (n-Butyl Acetate = 1)
1 | CCCCC(CC)C(=O)[O-].CCCCC(CC)C(=O)[O-].[Zn+2] (stereo not shown) [Zn(2eh)2, zinc (II) 2-ethylhexanoate] | <0.001
2 | OCCO [ethylene glycol] | <0.01
3 | CCCCCC [hexane] | 8.9

Same assay, conditions: rate of weight loss in a stream of 25° C. nitrogen, relative to n-butyl acetate under the same conditions

Row | Compound | Evaporation Rate (n-Butyl Acetate = 1)
4 | CCC(C)=O [methyl ethyl ketone] | 5.7
5 | Cc1ccccc1 [toluene] | 1.9
6 | CCCCC(CC)C(=O)O (stereo not shown) [H2eh, 2-ethylhexanoic acid] | 0.003
7 | CC(C)O [IPA] | 2.5
8 | CC(C)=O [acetone] | 14.4
9 | CCCCO [n-Butanol] | 0.43
10 | xylene | 0.8
